Results as given in ChEMBL document CHEMBL1201862, “PubChem BioAssay data set” (2004).
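Dose response: 5 concentrations. Exposure: 48 h. Format: 96-well plates. Endpoint: linear interpolation; highest concentration if not reached. GI50 = concentration required for 50% inhibition of growth.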 Calls of active or inactive are those of the source. No stated cut-off is given here; in the data, active = GI50 up to about 1.1 µM and inactive = higher.

Columns and labels:
Experiment in all cases: NCI-60 cell line screen, 48 h
[1] = test system: ACHN
[2] = test system: SF-539
[3] = test system: SNB-75
[4] = test system: HCT-15
[5] = test system: UACC-257
[6] = test system: DMS-273
[7] = test system: SF-295
[8] = test system: NCI-H23
[9] = test system: KM-20L2
[10] = test system: RXF 393
[11] = test system: DMS-114
[12] = test system: A498
[13] = test system: SW-620
[14] = test system: CAKI-1
[15] = test system: HCT-116
[16] = test system: SNB-19
[17] = test system: NCI-H226
[18] = test system: NCI-H522
[19] = test system: MOLT-4
[20] = test system: SK-MEL-28
[21] = test system: SNB-78
[22] = test system: NCI-H460
[23] = test system: IGROV-1
[24] = test system: OVCAR-5
[25] = test system: OVCAR-4
[26] = test system: K562
[27] = test system: Malme-3M
[28] = test system: OVCAR-3
[29] = test system: U-251
[30] = test system: UO-31
[31] = test system: 786-0
[32] = test system: HOP-62
[33] = test system: TK-10
[34] = test system: UACC-62
[35] = test system: HT-29
[36] = test system: SN12C
[37] = test system: CCRF-CEM
[38] = test system: HCC 2998
[39] = test system: M19-MEL
[40] = test system: KM12
[41] = test system: SR
[42] = test system: XF498
[43] = test system: SK-MEL-2
[44] = test system: COLO 205
[45] = test system: SK-MEL-5
[46] = test system: M14
[47] = test system: LXFL 529
[48] = test system: HL-60
[49] = test system: LOX IMVI
[50] = test system: DLD-1
[51] = test system: SK-OV-3
[52] = test system: EKVX
[53] = test system: HOP-18
[54] = test system: SF-268
[55] = test system: RXF 631
[56] = test system: OVCAR-8
[57] = test system: A549
[58] = test system: HOP-92
[59] = test system: RPMI-8226

CCSC1(SCC)CCN(/C=N/C(C)(C)C)C1
GI50 [1]: > 100 µM (inactive) | GI50 [2]: > 100 µM (inactive) | GI50 [3]: > 100 µM (inactive) | GI50 [4]: > 100 µM | GI50 [5]: > 100 µM (inactive) | GI50 [6]: > 100 µM (inactive) | GI50 [7]: > 100 µM (inactive) | GI50 [8]: > 100 µM (inactive) | GI50 [9]: > 100 µM (inactive) | GI50 [10]: 67.8 µM (inactive) | GI50 [11]: 44.7 µM (inactive) | GI50 [12]: > 100 µM (inactive) | GI50 [13]: 19.5 µM (inactive) | GI50 [14]: > 100 µM (inactive) | GI50 [15]: 78 µM (inactive) | GI50 [16]: > 100 µM (inactive) | GI50 [17]: > 100 µM (inactive) | GI50 [18]: > 100 µM (inactive) | GI50 [19]: > 100 µM (inactive) | GI50 [20]: > 100 µM (inactive) | GI50 [21]: > 100 µM (inactive) | GI50 [22]: > 100 µM (inactive) | GI50 [23]: > 100 µM (inactive) | GI50 [24]: > 100 µM (inactive) | GI50 [25]: > 100 µM (inactive) | GI50 [26]: > 100 µM (inactive) | GI50 [27]: > 100 µM (inactive) | GI50 [28]: > 100 µM (inactive) | GI50 [29]: > 100 µM (inactive) | GI50 [30]: > 100 µM (inactive) | GI50 [31]: > 100 µM (inactive) | GI50 [32]: > 100 µM (inactive) | GI50 [33]: > 100 µM (inactive) | GI50 [34]: > 100 µM (inactive) | GI50 [35]: > 100 µM (inactive) | GI50 [36]: > 100 µM (inactive) | GI50 [37]: 76.4 µM (inactive) | GI50 [38]: > 100 µM (inactive) | GI50 [39]: > 100 µM (inactive) | GI50 [40]: > 100 µM (inactive) | GI50 [41]: > 100 µM (inactive) | GI50 [42]: > 100 µM (inactive) | GI50 [43]: > 100 µM (inactive) | GI50 [44]: 54.7 µM (inactive) | GI50 [45]: > 100 µM (inactive) | GI50 [46]: > 100 µM (inactive) | GI50 [47]: > 100 µM (inactive) | GI50 [48]: 29.7 µM (inactive) | GI50 [49]: 52.6 µM (inactive) | GI50 [50]: 62.4 µM (inactive) | GI50 [51]: > 100 µM (inactive) | GI50 [52]: > 100 µM (inactive) | GI50 [53]: > 100 µM (inactive) | GI50 [54]: > 100 µM (inactive) | GI50 [55]: > 100 µM (inactive) | GI50 [56]: > 100 µM (inactive) | GI50 [57]: > 100 µM (inactive)

COC(=O)c1cccc2cccc(C(=O)Nc3ccc(Cl)cc3)c12
GI50 [1]: 2.92 µM (inactive) | GI50 [2]: 21.3 µM (inactive) | GI50 [3]: > 100 µM (inactive) | GI50 [4]: > 35.2 µM | GI50 [5]: > 100 µM (inactive) | GI50 [6]: 0.729 µM (active) | GI50 [7]: 1.72 µM (inactive) | GI50 [8]: 12.7 µM (inactive) | GI50 [9]: > 24.2 µM (inactive) | GI50 [10]: > 100 µM (inactive) | GI50 [11]: 14.8 µM (inactive) | GI50 [12]: 36.1 µM (inactive) | GI50 [13]: 11.4 µM (inactive) | GI50 [14]: > 100 µM (inactive) | GI50 [15]: > 35.1 µM (inactive) | GI50 [16]: > 100 µM (inactive) | GI50 [17]: > 100 µM (inactive) | GI50 [18]: 13.7 µM (inactive) | GI50 [19]: 3.1 µM (inactive) | GI50 [20]: > 100 µM (inactive) | GI50 [21]: 56.1 µM (inactive) | GI50 [22]: 10.3 µM (inactive) | GI50 [58]: > 69.7 µM (inactive) | GI50 [24]: > 86.9 µM (inactive) | GI50 [25]: > 100 µM (inactive) | GI50 [26]: 0.142 µM (active) | GI50 [27]: > 100 µM (inactive) | GI50 [28]: 29.2 µM (inactive) | GI50 [29]: 39.7 µM (inactive) | GI50 [30]: 2.94 µM (inactive) | GI50 [31]: > 100 µM (inactive) | GI50 [33]: > 100 µM (inactive) | GI50 [34]: 0.153 µM (active) | GI50 [59]: 2.09 µM (inactive) | GI50 [36]: > 100 µM (inactive) | GI50 [37]: 2.26 µM (inactive) | GI50 [38]: 6.17 µM (inactive) | GI50 [39]: 4.35 µM (inactive) | GI50 [40]: > 40.9 µM (inactive) | GI50 [41]: 17.1 µM (inactive) | GI50 [42]: > 73.3 µM (inactive) | GI50 [43]: 1.84 µM (inactive) | GI50 [44]: 0.977 µM (active) | GI50 [45]: 0.336 µM (active) | GI50 [46]: 0.951 µM (active) | GI50 [47]: 0.474 µM (active) | GI50 [48]: 0.706 µM (active) | GI50 [49]: 0.664 µM (active) | GI50 [50]: > 21.7 µM (inactive) | GI50 [51]: > 100 µM (inactive) | GI50 [52]: 23.2 µM (inactive) | GI50 [53]: > 100 µM (inactive) | GI50 [54]: > 68.7 µM (inactive) | GI50 [55]: > 86.1 µM (inactive) | GI50 [56]: > 79.8 µM (inactive) | GI50 [57]: > 78.2 µM (inactive)

Cc1cc2c(=O)cc(-c3ccc(F)cc3)oc2c(C(=O)O)c1C
GI50 [1]: > 100 µM (inactive) | GI50 [2]: > 100 µM (inactive) | GI50 [3]: > 100 µM (inactive) | GI50 [4]: > 100 µM | GI50 [5]: > 100 µM (inactive) | GI50 [6]: > 100 µM (inactive) | GI50 [7]: > 100 µM (inactive) | GI50 [8]: > 100 µM (inactive) | GI50 [9]: > 100 µM (inactive) | GI50 [10]: > 100 µM (inactive) | GI50 [11]: > 100 µM (inactive) | GI50 [13]: > 100 µM (inactive) | GI50 [14]: > 100 µM (inactive) | GI50 [15]: > 100 µM (inactive) | GI50 [16]: > 100 µM (inactive) | GI50 [17]: > 100 µM (inactive) | GI50 [18]: > 100 µM (inactive) | GI50 [19]: > 100 µM (inactive) | GI50 [20]: > 100 µM (inactive) | GI50 [21]: > 100 µM (inactive) | GI50 [22]: > 100 µM (inactive) | GI50 [23]: > 100 µM (inactive) | GI50 [24]: > 100 µM (inactive) | GI50 [25]: > 100 µM (inactive) | GI50 [26]: > 100 µM (inactive) | GI50 [27]: > 100 µM (inactive) | GI50 [28]: > 100 µM (inactive) | GI50 [29]: > 100 µM (inactive) | GI50 [30]: > 100 µM (inactive) | GI50 [31]: > 100 µM (inactive) | GI50 [33]: > 100 µM (inactive) | GI50 [34]: > 100 µM (inactive) | GI50 [59]: > 100 µM (inactive) | GI50 [35]: > 100 µM (inactive) | GI50 [36]: > 100 µM (inactive) | GI50 [37]: > 100 µM (inactive) | GI50 [39]: > 100 µM (inactive) | GI50 [40]: > 100 µM (inactive) | GI50 [42]: > 100 µM (inactive) | GI50 [43]: > 100 µM (inactive) | GI50 [44]: > 100 µM (inactive) | GI50 [45]: > 100 µM (inactive) | GI50 [46]: > 100 µM (inactive) | GI50 [47]: > 100 µM (inactive) | GI50 [49]: > 100 µM (inactive) | GI50 [50]: > 100 µM (inactive) | GI50 [51]: > 100 µM (inactive) | GI50 [52]: > 100 µM (inactive) | GI50 [53]: > 100 µM (inactive) | GI50 [54]: > 100 µM (inactive) | GI50 [55]: > 100 µM (inactive) | GI50 [56]: > 100 µM (inactive) | GI50 [57]: > 100 µM (inactive)
